Data on 21 compounds can be found in patent US10106504B2, “Pyridin-3-yl acetic acid derivatives as inhibitors of human immunodeficiency virus replication” (priority 2015, dated 2018).

In the assay the test system is NL-RLuc virus. Description: Inhibition of HIV replication (NL-RLuc virus, luciferase readout in MT-2 cells). Format: cell-based. As to conditions: Human immunodeficiency virus 1, MT2, 120 h; for pEC50: read-out: Activity; for EC50: read-out: EC50 μM. The text has this: Inhibition of HIV Replication:
A recombinant NL-RLuc proviral clone was constructed in which a section of the nef gene from NL4-3 was replaced with the Renilla Luciferase gene. This virus is fully infectious and can undergo multiple cycles of replication in cell culture. In addition, the luciferous reporter provides a simple and easy method for quantitating the extent of virus growth and consequently, the antiviral activity of test compounds. The plasmid pNLRLuc contains the proviral NL-Rluc DNA cloned into pUC18 at the PvuII site. The NL-RLuc virus was prepared by transfection of 293T cells with the plasmid pNLRLuc. Transfections were performed using the LipofectAMINE PLUS kit from Invitrogen (Carlsbad, Calif.) according to the manufacturer and the virus generated was titered in MT-2 cells. For susceptibility analyses, the titrated virus was used to infect MT-2 cells in the presence of compound, and after 5 days of incubation, cells were processed and quantitated for virus growth by the amount of expressed luciferase. Assay media was RPMI 1640 supplemented with 10% heat inactivated fetal bovine serum (FBS), 100 units/ml penicillin G/100 units/ml streptomycin, 10 mM HEPES buffer pH 7.55 and 2 mM L-glutamine. The results from at least 2 experiments were used to calculate the EC50 values. Luciferase was quantitated using the Dual Luciferase kit from Promega (Madison, Wis.). Susceptibility of viruses to compounds was determined by incubation in the presence of serial dilutions of the compound. The 50% effective concentration (EC50) was calculated by using the exponential form of the median effect equation where (Fa)=1/[1+(ED50/drug conc.)^m] (Johnson V A, Byington R T. Infectivity Assay. In Techniques in HIV Research. ed. Aldovini A, Walker BD. 71-76. New York: Stockton Press. 1990). Activity equal to A refers to a compound having an EC50<100 nM, while B and C denote compounds having an EC50 between 100 nM and 1 uM (B) or >1 uM (C).

pEC50: −log10 of the molar value. Read-outs that look alike come from different tables or passages of the source.

In the case of `Cc1nc(C)c([C@H](OC(C)(C)C)C(=O)O)c(-c2ccc3c(c2)CCCO3)c1-c1ccc2c(c1)CCN(Cc1ccccc1Cl)C2` [Example 27, (S)-2-(tert-Butoxy)-2-(5-(2-(2-chlorobenzyl)-1,2,3,4-tetrahydroisoquinolin-6-yl)-4-(chroman-6-yl)-2,6-dimethylpyridin-3-yl)acetic Acid], the pEC50 was above 7.00 and the EC50 amounted to 0.005 µM.
With `Cc1nc(C)c([C@H](OC(C)(C)C)C(=O)O)c(-c2cc(F)c3c(c2C)CCCO3)c1-c1cc(F)c2c(c1C)CCCO2` [Example 1, (2S)-2-(4,5-Bis(8-fluoro-5-methylchroman-6-yl)-2,6-dimethylpyridin-3-yl)-2-(tert-butoxy)acetic Acid], the pEC50 was below 6.00 and the EC50 is 1.74 µM.
As to `Cc1cccc(F)c1CN1CCc2cc(-c3c(C)nc(C)c([C@H](OC(C)(C)C)C(=O)O)c3-c3ccc4c(c3)CCCO4)ccc2C1` [Example 25, (S)-2-(tert-Butoxy)-2-(4-(chroman-6-yl)-5-(2-(2-fluoro-6-methylbenzyl)-1,2,3,4-tetrahydroisoquinolin-6-yl)-2,6-dimethylpyridin-3-yl)acetic Acid], the pEC50 is above 7.00.
Same read-out and setting: in the case of `Cc1cc(N2CCc3cc(-c4c(C)nc(C)c([C@H](OC(C)(C)C)C(=O)O)c4-c4ccc5c(c4)CCCO5)ccc3C2)ncn1` [Example 55, (S)-2-(tert-Butoxy)-2-(4-(chroman-6-yl)-2,6-dimethyl-5-(2-(6-methylpyrimidin-4-yl)-1,2,3,4-tetrahydroisoquinolin-6-yl)pyridin-3-yl)acetic Acid] it was above 7.00; in that of `Cc1nc(C)c([C@H](OC(C)(C)C)C(=O)O)c(-c2cc(F)c3c(c2C)CCCO3)c1-c1ccc(OCCc2ccc(F)cc2)cc1` [Example 6, (2S)-2-(tert-Butoxy)-2-(4-(8-fluoro-5-methylchroman-6-yl)-5-(4-(4-fluorophenethoxy)phenyl)-2,6-dimethylpyridin-3-yl)acetic Acid], above 7.00.
Consider `Cc1cc(F)ccc1CN1CCc2cc(-c3c(N)nc(C)c([C@H](OC(C)(C)C)C(=O)O)c3-c3ccc4c(c3)CCCO4)ccc2C1` [Example 60, (S)-2-(6-Amino-4-(chroman-6-yl)-5-(2-(4-fluoro-2-methylbenzyl)-1,2,3,4-tetrahydroisoquinolin-6-yl)-2-methylpyridin-3-yl)-2-(tert-butoxy)acetic Acid], for which the pEC50 was above 7.00 and the EC50 turned out to be 0.003 µM.
Turning to `Cc1nc(COCC2COC2)c(-c2ccc(OCCc3ccc(F)cc3)cc2)c(-c2ccc3c(c2)CCCO3)c1[C@H](OC(C)(C)C)C(=O)O` [Example 16, (S)-2-(tert-Butoxy)-2-(4-(chroman-6-yl)-5-(4-(4-fluorophenethoxy)phenyl)-2-methyl-6-((oxetan-3-ylmethoxy)methyl)pyridin-3-yl)acetic Acid], the pEC50 was above 7.00.
`Cc1cccc(F)c1CN1CCc2cc(-c3c(N)nc(C)c([C@H](OC(C)(C)C)C(=O)O)c3-c3ccc4c(c3)CCCO4)ccc2C1` [Example 62, (S)-2-(6-Amino-4-(chroman-6-yl)-5-(2-(2-fluoro-6-methylbenzyl)-1,2,3,4-tetrahydroisoquinolin-6-yl)-2-methylpyridin-3-yl)-2-(tert-butoxy)acetic Acid]: the pEC50 was above 7.00.
Regarding `Cc1cc(F)ccc1CN1CCc2cc(-c3c(C)nc(C)c([C@H](OC(C)(C)C)C(=O)O)c3-c3cc(F)c4c(c3)CCCO4)ccc2C1` [Example 50, (S)-2-(tert-Butoxy)-2-(5-(2-(4-fluoro-2-methylbenzyl)-1,2,3,4-tetrahydroisoquinolin-6-yl)-4-(8-fluorochroman-6-yl)-2,6-dimethylpyridin-3-yl)acetic Acid], the pEC50 was above 7.00.
`Cc1nc(C)c([C@H](OC(C)(C)C)C(=O)O)c(-c2ccc3c(c2)CCCO3)c1-c1ccc2c(c1)CCN(C(=O)OCc1ccccc1)C2` [Example 19, (S)-2-(5-(2-((Benzyloxy)carbonyl)-1,2,3,4-tetrahydroisoquinolin-6-yl)-4-(chroman-6-yl)-2,6-dimethylpyridin-3-yl)-2-(tert-butoxy)acetic Acid]: the pEC50 is above 7.00 and the EC50 turned out to be 0.069 µM.
Turning to `COCCNCc1nc(C)c([C@H](OC(C)(C)C)C(=O)O)c(-c2ccc3c(c2)CCCO3)c1-c1ccc(OCCc2ccc(F)cc2)cc1` [Example 12, (S)-2-(tert-Butoxy)-2-(4-(chroman-6-yl)-5-(4-(4-fluorophenethoxy)phenyl)-6-(((2-methoxyethyl)amino)methyl)-2-methylpyridin-3-yl)acetic Acid], the pEC50 was above 7.00 and the half-maximal effective concentration (EC50) was determined as 0.007 µM.
The corresponding values for `Cc1nc(C)c([C@H](OC(C)(C)C)C(=O)O)c(-c2ccc3c(c2)CCCO3)c1-c1ccc2c(c1)CCNC2` [Example 21, (S)-2-(tert-Butoxy)-2-(4-(chroman-6-yl)-2,6-dimethyl-5-(1,2,3,4-tetrahydroisoquinolin-6-yl)pyridin-3-yl)acetic acid] are below 6.00 and 7.77 µM.
In the case of `Cc1nc(C)c([C@H](OC(C)(C)C)C(=O)O)c(-c2ccc3c(c2)CCCO3)c1-c1ccc2c(c1)CCN(CCCc1ccc(F)cc1)C2` [Example 31, (S)-2-(tert-Butoxy)-2-(4-(chroman-6-yl)-5-(2-(3-(4-fluorophenyl)propyl)-1,2,3,4-tetrahydroisoquinolin-6-yl)-2,6-dimethylpyridin-3-yl)acetic Acid], the pEC50 was above 7.00.
The same measure, in the same setting: the value for `Cc1cc(N2CCc3cc(-c4c(N)nc(C)c([C@H](OC(C)(C)C)C(=O)O)c4-c4ccc5c(c4)CCCO5)ccc3C2)nc(C)n1` [Example 65, (S)-2-(6-Amino-4-(chroman-6-yl)-5-(2-(2,6-dimethylpyrimidin-4-yl)-1,2,3,4-tetrahydroisoquinolin-6-yl)-2-methylpyridin-3-yl)-2-(tert-butoxy)acetic Acid] was above 7.00.
Consider `Cc1cccc(F)c1CN1CCc2cc(-c3c(C)nc(C)c([C@H](OC(C)(C)C)C(=O)O)c3-c3cc(F)c4c(c3C)CCCO4)ccc2C1` [Example 39, (2S)-2-(tert-Butoxy)-2-(4-(8-fluoro-5-methylchroman-6-yl)-5-(2-(2-fluoro-6-methylbenzyl)-1,2,3,4-tetrahydroisoquinolin-6-yl)-2,6-dimethylpyridin-3-yl)acetic Acid], for which the pEC50 is above 7.00 and the concentration giving a half-maximal response (EC50) amounted to 0.024 µM.
Turning to `Cc1nc(N)c(-c2ccc(OCCc3ccc(F)cc3)cc2)c(-c2ccc3c(c2)CCCO3)c1[C@H](OC(C)(C)C)C(=O)O` [Example 59, (S)-2-(6-Amino-4-(chroman-6-yl)-5-(4-(4-fluorophenethoxy)phenyl)-2-methylpyridin-3-yl)-2-(tert-butoxy)acetic Acid], the pEC50 was above 7.00.
As for `CCOc1ccc(-c2c(C)nc(C)c([C@H](OC(C)(C)C)C(=O)O)c2-c2cc(F)c3c(c2C)CCCO3)cc1` [Example 7, (2S)-2-(tert-Butoxy)-2-(5-(4-ethoxyphenyl)-4-(8-fluoro-5-methylchroman-6-yl)-2,6-dimethylpyridin-3-yl)acetic Acid], the pEC50 is 6.00 to 7.00 and the concentration giving a half-maximal response (EC50) was 0.545 µM.
Regarding `Cc1cccc(F)c1CN1CCc2cc(-c3c(CCCC4CCOCC4)nc(C)c([C@H](OC(C)(C)C)C(=O)O)c3-c3ccc4c(c3)CCCO4)ccc2C1` [Example 68, (S)-2-(tert-Butoxy)-2-(4-(chroman-6-yl)-5-(2-(2-fluoro-6-methylbenzyl)-1,2,3,4-tetrahydroisoquinolin-6-yl)-2-methyl-6-(3-(tetrahydro-2H-pyran-4-yl)propyl)pyridin-3-yl)acetic Acid], the pEC50 is above 7.00.
Still for that read-out and setting: in the case of `Cc1ccc(-c2c(-c3ccc4c(c3)CCN(Cc3ccccc3F)C4)c(C)nc(C)c2[C@H](OC(C)(C)C)C(=O)O)cc1` [Example 42, (S)-2-(tert-Butoxy)-2-(5-(2-(2-fluorobenzyl)-1,2,3,4-tetrahydroisoquinolin-6-yl)-2,6-dimethyl-4-(p-tolyl)pyridin-3-yl)acetic Acid] it was above 7.00.
`Cc1cc(N2CCc3cc(-c4c(CN(C)CC5CCOCC5)nc(C)c([C@H](OC(C)(C)C)C(=O)O)c4-c4ccc5c(c4)CCCO5)ccc3C2)ncn1` [Example 33, (S)-2-(tert-Butoxy)-2-(4-(chroman-6-yl)-2-methyl-6-((methyl((tetrahydro-2H-pyran-4-yl)methyl)amino)methyl)-5-(2-(6-methylpyrimidin-4-yl)-1,2,3,4-tetrahydroisoquinolin-6-yl)pyridin-3-yl)acetic Acid]: the pEC50 is 6.00 to 7.00 and the 50% effective concentration (EC50) was determined as 0.282 µM.
With `Cc1nc(C)c([C@H](OC(C)(C)C)C(=O)O)c(-c2cc(F)c3c(c2)CCCO3)c1-c1ccc(OCCc2ccc(F)cc2)cc1` [Example 48, (S)-2-(tert-Butoxy)-2-(4-(8-fluorochroman-6-yl)-5-(4-(4-fluorophenethoxy)phenyl)-2,6-dimethylpyridin-3-yl)acetic Acid], the pEC50 was above 7.00.
